{
  "source": "patent US20260259222A1",
  "about": "“METHOD OF DIAGNOSING WOUNDS” (TRAUMA CARE CONSULT TRAUMATOLOGISCHE FORSCHUNG …, priority 2022, published 2026)",
  "key": {"[1]": {"tested_on": "p-rpS6 in human dermal fibroblasts (HDFs)", "test": "in vitro scratch assay, p-rpS6-positive cells (immunofluorescence)", "format": "cell-based", "conditions": "HDFs in basal medium; pre-treatment 10 to 30 min prior to scratch with 20 nM rapamycin or 10 μM U0126; fixed 30 min after scratch; vs DMSO", "procedure": "(§1) To model a skin wound in vitro, cell cultures were subjected to a damage assay to monitor cellular response mechanisms. Commercially available human dermal fibroblasts (HDFs) were cultured in HDF medium (DMEM/F12 (Sigma Aldrich), 10% fetal bovine serum (Sigma Aldrich) and 4 mM L-Glutamine (Gibco)), subcultivated at 90% confluency and used for experiments below passage 15. Immortalised human keratinocytes (HaCaT) were maintained in HACAT medium (DMEM high glucose (Sigma Aldrich), 10% fetal bovine serum (Sigma Aldrich) and 2 mM L-Glutamine (Gibco) and subcultivated at 60% confluency. All cell culture experiments were performed in a humidified incubator at 37° C. and 5% CO2. […]\n(§2) For immunofluorescence staining, the coverslips containing damaged and control cells were permeabilized using 0.5% Triton X100 for 5 min, washed three times with PBS for 5 min each, and blocked using PBS with 5% goat serum (VECS-1000, Vector Laboratories) for 1 h. […] For quantification of rpS6 and Erk phosphorylation, ten images per slide were taken along the scratch using an inverted microscope Nikon (Nikon Corporation, Tokyo, Japan) with set exposure times. These images were processed and quantified for total cell count and activated cell count (p-rpS6 or p-ERK positive cells) using set thresholds and particle analysis in Fiji. […]"}, "[2]": {"tested_on": "p-Erk in human dermal fibroblasts (HDFs)", "test": "in vitro scratch assay, p-Erk-positive cells (immunofluorescence)", "format": "cell-based", "conditions": "HDFs in basal medium; pre-treatment 10 to 30 min prior to scratch with 20 nM rapamycin or 10 μM U0126; fixed 30 min after scratch; vs DMSO", "procedure": "as §1, §2"}},
  "data": [
    {"smiles": "N#CC(=C(/N)Sc1ccccc1N)/C(C#N)=C(\\N)Sc1ccccc1N", "note": "[U0126]", "values": [
      {"measurement": "effect on p-rpS6 induction (number of cells positive for p-rpS6) in the scratch assay", "setting": "[1]", "value": "no significant effect on rpS6 phosphorylation"},
      {"measurement": "effect on Erk phosphorylation (number of cells positive for p-Erk) in the scratch assay", "setting": "[2]", "value": "almost completely abrogating p-Erk-positive cells"}
    ]}
  ]
}
